Assay [1] relates to HBV (HBVcircle transfected HepG2 cells). Kind of assay: In vitro anti-HBV drug evaluation in HBVcircle transfected HepG2 cells. The format is cell-based. Particulars: treated 6 days. On the procedure:
X-[…] HP DNA transfection reagent (from Roche) was used for transfection. One day before transfection, cells were trypsinized and seeded onto plates, Cells were seeded at 0.8×10^5/well in 24 well plates for HepG2 and proliferation HepaRG cell line, and 3×10^5/well in 24 well plates for differentiated HepaRG cell line.
(§1) HBeAg or HBsAg were measured by using the HBeAg or HBsAg ELISA kit (from Autobio) according to the manufacturer's direction.
The transfected HepG2 cells were lysed using lysis buffer (50 mM Tris-HCl, pH8.0, 100 mM NaCl, 1% CA-630, 1×EDTA free proteinase inhibitor). After incubation at 4° C. for 1 h with agitation, cytoplasmic lysate was cleared by centrifugation. The lysate was separated by electrophoresis in 1.5% agarose gel and then transferred onto PVDF membrane (for Western blotting) or a positively charged nylon membrane (for southern blotting), for detecting the capsid protein and encapsidated DNA respectively.
After SDS-PAGE, gels were transferred to PVDF membrane by using iblot system (from Invitrogen). […]
The sample was loaded to an electrophoresis of 1.5% agarose gel in 1×TAE buffer for 2-3 hours. […] After incubating blots with an alkaline-phosphatase-conjugated anti-DIG antibody, hybridization signals were detected in a standard chemiluminescence reaction.
Next, the feasibility of evaluating anti-HBV drugs using HBVcircle system in cell culture models was assessed. […]

Assay [2] has as its system HBV (HBVcircle injected C3H/HeN mice). Nature of the assay: In vivo anti-HBV drug evaluation in HBVcircle HDI mice. Particulars: 10 μg HBVcircle, 0.03mg/kg QD orally for 29 days from day 23. On the procedure:
The animals were grouped based on Day-1 body weights. On Day 0, all animals were subjected to hydrodynamic injection through tail vein within 5 seconds with 2.5-20 μg DNA in a volume (mL) of saline equivalent to 8% of body weight (g) (Liu, et al., 1999, Gene Ther, 6: 1258-66, Zhang, et al., 1999, Hum Gene Ther, 10: 1735-7). After animal exclusion due to technical failure of hydrodynamic injection or low HBV marker expression on Day 1 or Day 3, the remaining mice were maintained for long term evaluation. Blood samples were collected for serum preparation on indicated time post HDI injection.
For compound treatment, on Day 20 post HDI (DAY-3 of compound treatment), C3H/HeN mice were divided into 4 groups based on serum HBsAg levels and body weights on DAY 20. ETV and R848 were diluted in saline from stock solutions on treatment days. Vehicle was RC591. All test compounds were given orally with indicated dose and frequency.
as §1
HBV DNA in cell culture supernatant or mouse serum was extracted using MagNA Pure 96 System MagNA Pure 96 System (from Roche). HBV DNA levels were determined via RT-PCR. The primer and probe sequences are shown below. […]

This is an account of results in US20170327797A1, “R[…] CCCDNA, THE METHOD TO GENERATE THEREOF AND THE USE THEREOF” (priority 2015, published 2017).

As to `C=C1[C@H](CO)[C@@H](O)C[C@@H]1n1cnc2c(=O)[nH]c(N)nc21` [ETV, Entecavir], in assay [1], the “HBV DNA replication (encapsidated HBV DNA, southern blot)” value is on record as “efficiently blocked HBV DNA replication in a dose dependent manner” and the “other viral proteins expression” value was “did not affect other viral proteins expression”. In addition, in assay [2], the “HBV DNA in serum” value is “efficiently reduced HBV DNA in serum to undetectable level”.
